The assay concerns the target γ-secretase (Homo sapiens (Human), UniProt P49768). Briefly: Cellular γ-secretase assay (Aβ42 secretion, AlphaLisa). It counts as cell-based. The conditions noted are these: inhibition of Aβ42 secretion; human neuroglioma H4 cells overexpressing human APP695 Swedish double mutation; 24 hr compound incubation. Here is the method:
Human neuroglioma H4 cells overexpressing human APP695 with the Swedish double mutation (K595N/M596L) were plated at 30,000 cells/well/100 μl in 96-well plates in IMDM media containing 10% FCS, 0.2 mg/l Hygromycin B and incubated at 37° C., 5% CO2.
3-4 hr post plating, compounds are a diluted in media and 50 μl is added as […] concentrate to achieve the final concentration. Compound incubation is performed for 24 hr. Final doses typically range from 4 μM down to 0.0013 μM in half-log steps resulting in an eight point dose response curve. Appropriate controls using vehicle only and reference compound were applied to this assay. The final concentration of Me2SO was 0.4%.
After incubation at 37° C., 5% CO2, the supernatant was subjected to quantification of secreted Aβ42 by the means of an AlphaLisa assay kit (Human Amyloid beta 1-42 Kit: Cat # AL203C, Perkin Elmer). 20 μl of the cell culture supernatant was transferred to an assay plate. Then 10 μl of a mixture of the AlphaLisa coupled capture antibody and the biotinylated detection antibody was added and incubated for 3 hours at room temperature while softly shaking the assay plate. After a further addition of 20 μl of the Donor beads the assay plate was incubated for 30 min at room temperature and constant shaking without exposure to direct light. The assay plate was then read on a Paradigm AlphaLisa Reader using the build-in program with excitation at 680 nm and emission at […]. The measured signals were then used to calculate IC50 values for inhibition of Aβ42 secretion by nonlinear regression fit analysis using XLfit 5.3 software (IDBS).
(In general: Alpha assays give light when donor and acceptor beads are brought close together.)

For 14 compounds, EC50 results are on record in patent US10669276B2, “Fused pyrimidine derivatives” (Hoffmann-La Roche Inc., priority 2016, dated 2020).

The structures appear in SMILES notation.

In turn, `CNc1nc(Nc2cnc(-n3cnc(C)c3)c(OC)c2)nc2c1CCN2c1ccc(F)cc1` [Example 33, 7-(4-Fluorophenyl)-N2-(5-methoxy-6-(4-methyl-1H-imidazol-1-yl)pyridin-3-yl)-N4-methyl-6,7-dihydro-5H-pyrrolo[2,3-d]pyrimidine-2,4-diamine] returned an EC50 of 6 nM.
The same measure for `CNc1nc(Nc2ccc(-n3cnc(C)c3)c(F)c2)nc2c1C(C)(C)CN2c1ccc(F)cc1` [Example 34, N2-(3-Fluoro-4-(4-methyl-1H-imidazol-1-yl)phenyl)-7-(4-fluorophenyl)-N4,5,5-trimethyl-6,7-dihydro-5H-pyrrolo[2,3-d]pyrimidine-2,4-diamine]: 8 nM; for `CNc1nc(Nc2ccc(-n3cnc(C)n3)c(OC)c2)nc2c1C(C)(C)CCN2c1ccc(F)cc1` [Example 35, 8-(4-Fluorophenyl)-N2-(3-methoxy-4-(3-methyl-1H-1,2,4-triazol-1-yl)phenyl)-N4,5,5-trimethyl-5,6,7,8-tetrahydropyrido[2,3-d]pyrimidine-2,4-diamine]: 13 nM; for `CNc1nc(Nc2cnc(-n3cnc(C)c3)c(F)c2)nc2c1C(C)(C)CCN2c1ccc(F)cc1` [Example 36, N2-(5-Fluoro-6-(4-methyl-1H-imidazol-1-yl)pyridin-3-yl)-8-(4-fluorophenyl)-N4,5,5-trimethyl-5,6,7,8-tetrahydropyrido[2,3-d]pyrimidine-2,4-diamine]: 14 nM.
The same measure for `CNc1nc(Nc2ccc(-n3cnc(C)c3)c(F)c2)nc2c1C(C)(C)CCN2c1ccc(F)cc1` [Example 37, N2-(3-Fluoro-4-(4-methyl-1H-imidazol-1-yl)phenyl)-8-(4-fluorophenyl)-N4,5,5-trimethyl-5,6,7,8-tetrahydropyrido[2,3-d]pyrimidine-2,4-diamine]: 8 nM.
Then `CNc1nc(Nc2ccc(-n3cnc(C)c3)c(F)c2)nc2c1CCN2c1ccc(F)cc1` [Example 38, N2-(3-Fluoro-4-(4-methyl-1H-imidazol-1-yl)phenyl)-7-(4-fluorophenyl)-N4-methyl-6,7-dihydro-5H-pyrrolo[2,3-d]pyrimidine-2,4-diamine], with 6 nM; and `CNc1nc(Nc2ccc(-n3cnc(C)n3)c(OC)c2)nc2c1C(C)CN2c1ccc(F)cc1` (centres unmarked) [Example 39, 7-(4-Fluorophenyl)-N2-(3-methoxy-4-(3-methyl-1H-1,2,4-triazol-1-yl)phenyl)-N4,5-dimethyl-6,7-dihydro-5H-pyrrolo[2,3-d]pyrimidine-2,4-diamine], with 6 nM; and `CNc1nc(Nc2cnc(-n3cnc(C)c3)c(OC)c2)nc2c1C(C)CN2c1ccc(F)cc1` (centres unmarked) [Example 40, 7-(4-Fluorophenyl)-N2-(5-methoxy-6-(4-methyl-1H-imidazol-1-yl)pyridin-3-yl)-N4,5-dimethyl-6,7-dihydro-5H-pyrrolo[2,3-d]pyrimidine-2,4-diamine], with 6 nM.
Take `CNc1nc(Nc2ccc(-n3cnc(C)n3)c(OC)c2)nc2c1C(C)(C)CN2c1cccc(F)c1F` [Example 41, 7-(2,3-Difluorophenyl)-N2-(3-methoxy-4-(3-methyl-1H-1,2,4-triazol-1-yl)phenyl)-N4,5,5-trimethyl-6,7-dihydro-5H-pyrrolo[2,3-d]pyrimidine-2,4-diamine]: the midpoint of the response, the EC50, lay at 9 nM.
The same measure for `CNc1nc(Nc2cnc(-n3cnc(C)c3)c(F)c2)nc2c1C(C)(C)CN2c1cccc(F)c1F` [Example 42, 7-(2,3-Difluorophenyl)-N2-(5-fluoro-6-(4-methyl-1H-imidazol-1-yl)pyridin-3-yl)-N4,5,5-trimethyl-6,7-dihydro-5H-pyrrolo[2,3-d]pyrimidine-2,4-diamine]: 8 nM; for `CNc1nc(Nc2ccc(-n3cnc(C)c3)c(F)c2)nc2c1C(C)(C)CN2c1cccc(F)c1F` [Example 43, 7-(2,3-Difluorophenyl)-N2-(3-fluoro-4-(4-methyl-1H-imidazol-1-yl)phenyl)-N4,5,5-trimethyl-6,7-dihydro-5H-pyrrolo[2,3-d]pyrimidine-2,4-diamine]: 5 nM; for `CNc1nc(Nc2cnc(-n3cnc(C)c3)c(OC)c2)nc2c1C(C)(C)CN2c1cccc(F)c1F` [Example 44, 7-(2,3-Difluorophenyl)-N2-(5-methoxy-6-(4-methyl-1H-imidazol-1-yl)pyridin-3-yl)-N4,5,5-trimethyl-6,7-dihydro-5H-pyrrolo[2,3-d]pyrimidine-2,4-diamine]: 5 nM.
Then `CNc1nc(Nc2ccc(-n3cnc(C)c3)c(F)c2)nc2c1C(C)(C)CN2c1ccc(F)cc1Cl` [Example 45, 7-(2-Chloro-4-fluorophenyl)-N2-(3-fluoro-4-(4-methyl-1H-imidazol-1-yl)phenyl)-N4,5,5-trimethyl-6,7-dihydro-5H-pyrrolo[2,3-d]pyrimidine-2,4-diamine], with 4 nM; and `CNc1nc(Nc2ccc(-c3nnc(C)o3)cc2)nc2c1C(C)(C)CN2c1ccc(F)cc1` [Example 47, 7-(4-Fluorophenyl)-N4,5,5-trimethyl-N2-(4-(5-methyl-1,3,4-oxadiazol-2-yl)phenyl)-6,7-dihydro-5H-pyrrolo[2,3-d]pyrimidine-2,4-diamine], with 55 nM.

One may read the EC50 as the concentration needed to bring the measured effect to its halfway point. Read a low EC50 as a more potent agent.
